Data from patent US20070099877A1, “N-aryl-thienopyrimidin-4-amines and analogs as activators of caspases and inducers of apoptosis and the use thereof” (Cytovia, Inc., priority 2005, published 2007).
Where a name gives a salt, the structure may show the parent alone. Read-outs that look alike come from different tables or passages of the source.

How the values were obtained:
Type in all cases: cell-based
[1] = tested on: human breast cancer cell line MDAMB435; assay: Inhibition of cell proliferation (GI50) in MDAMB435 cells; details: MDA-MB-435, Table III, 48 h, read-out: GI50 in Cancer Cells MDAMB435
Experimental: (§1) Human breast cancer cell lines T-47D, MX-1 and MDAMB435, human colon cancer cell line HT29, and human lung cancer cell line H1299 were grown and harvested as in Example 75. An aliquot of […] of cells (4.4×10^4 cells/mL) was added to a well of a 96-well microtiter plate containing 5 μL of a 10% DMSO in RPMI-1640 media solution containing 10 nM to 100 μM of N-(2,5-dimethoxyphenyl)-2-methylthieno[3,2-d]pyrimidin-4-amine (1 nM to 10 μM final). An aliquot of 45 μL of cells was added to a well of a 96-well microtiter plate containing 5 μL of a 10% DMSO in RPMI-1640 media solution without compound as the control sample for maximal cell proliferation (Lmax). The samples were mixed by agitation and then incubated at 37° C. for 48 h in a 5% CO2-95% humidity incubator. After incubation, the samples were removed from the incubator and 25 μL of CellTiter-Glo™ reagent (Promega) was added. The samples were mixed by agitation and incubated at room temperature for 10-15 min. Plates were then read using a luminescent plate reader (Model SPECTRAfluor Plus, Tecan) to give Ltest values.
(§2) Baseline for GI50 (dose for 50% inhibition of cell proliferation) of initial cell numbers was determined by adding an aliquot of 45 μL of cells or 45 μL of media, respectively, to wells of a 96-well microtiter plate containing 5 μL of a 10% DMSO in RPMI-1640 media solution. The samples were mixed by agitation and then incubated at 37° C. for 0.5 h in a 5% CO2-95% humidity incubator. After incubation, the samples were removed from the incubator and 25 μL of CellTiter-Glo™ reagent (Promega) was added. The samples were mixed by agitation and incubated at 37° C. for 10-15 min at room temperature in a 5% CO2-95% humidity incubator. Fluorescence was read as above, (LStart) defining luminescence for initial cell number used as baseline in GI50 determinations.
(§3) GI50 (dose for 50% inhibition of cell proliferation) is the concentration where [(LTest−Lstart)/(LMax−Lstart)]=0.5.

[2] = tested on: human colon carcinoma cell line HCT116; assay: Caspase cascade activation in HCT116 cells; details: read-out: Caspase activation Potency EC50 HCT116 (48 h)
Method in brief: (§4)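 Cells were exposed to compound at 0.016 to 10 μM final for 24 h or 48 h at 37 °C. They were then lysed with 14 μM N-(Ac-DEVD)-N′-ethoxycarbonyl-R110 in lysolecithin/DTT/PIPES buffer pH 7.2 for 3 h at room temperature (ex 485/em 530 nm). EC50 came from a sigmoidal fit of net RFU relative to untreated control.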

[3] = tested on: human hepatocellular carcinoma cell line SNU398; assay: Caspase cascade activation in SNU398 cells; details: read-out: Caspase activation Potency EC50 SNU398 (48 h)
Method in brief: as §4

[4] = tested on: human breast cancer cell line T-47D; assay: Caspase cascade activation (DEVD-R110 fluorogenic substrate) in T-47D cells
Method in brief: as §4

[5] = tested on: human breast cancer cell line MX-1; assay: Inhibition of cell proliferation (GI50) in MX-1 cells; details: Table III, MX1 cells, 48 h, read-out: GI50 in Cancer Cells MX1
Experimental: as §1, §2, §3

[6] = tested on: human lung cancer cell line H1299; assay: Caspase cascade activation in H1299 cells; details: NCI-H1299, 24 h, read-out: Caspase activation Potency EC50 H1299 (24 h)
Method in brief: as §4

[7] = tested on: human lung cancer cell line H1299; assay: Inhibition of cell proliferation (GI50) in H1299 cells; details: NCI-H1299, Table III, 48 h
Experimental: as §1, §2, §3

[8] = tested on: human breast cancer cell line T-47D; assay: Inhibition of cell proliferation (GI50, CellTiter-Glo) in T-47D cells; details: Table III, T47D cells, 48 h, read-out: GI50 in Cancer Cells T47D
Experimental: as §1, §2, §3

[9] = tested on: human colon cancer cell line HT29; assay: Inhibition of cell proliferation (GI50) in HT29 cells; details: HT-29, Table III, 48 h
Experimental: as §1, §2, §3

[10] = tested on: human lymphoma cell line Raji; assay: Caspase cascade activation in Raji cells; details: 48 h, read-out: Caspase Activation Potency EC50 Raji
[11] = tested on: human B cell lymphoblastoid cell line Ramos; assay: Caspase cascade activation in Ramos cells; details: 48 h, read-out: Caspase Activation Potency EC50 Ramos
[12] = tested on: human Burkitt's lymphoma cell line Namalwa; assay: Caspase cascade activation in Namalwa cells; details: Burkitts lymphoma cell, 48 h, read-out: Caspase Activation Potency EC50 Namalwa
[13] = tested on: breast cancer cell line SKBR3; assay: Caspase cascade activation in SKBR3 cells; details: Homo sapiens, SK-BR-3, 48 h, read-out: Caspase Activation Potency EC50 SKBR3
[14] = Homo sapiens, T47D, 24 h, T47D cells, 24 h, read-out: Caspase activation Potency EC50 T47D (24 h)
[15] = Homo sapiens, T47D, 48 h, T-47D cells, 48 h, read-out: Caspase activation Potency EC50 T-47D (48 h)

`COc1ccc(OC)c(Nc2ncnc3sccc23)c1` [Example 5, N-(2,5-Dimethoxyphenyl)thieno[2,3-d]pyrimidin-4-amine hydrochloride] showed a GI50 [1] greater than 10000 nM, an EC50 ([2]; Homo sapiens, HCT-116, 48 h) greater than 10000 nM and an EC50 ([3]; Homo sapiens, SNU-398, 48 h) greater than 10000 nM. The EC50 [4, 14] was 147 nM, the EC50 [4, 15] was 296 nM and the GI50 [5] was 300 nM. It also gave an EC50 [6] greater than 10000 nM, a GI50 [7] greater than 10000 nM and a GI50 [8] of 200 nM. The GI50 [9] was greater than 10000 nM.

In the case of `COc1ccc(OC)c(Nc2ncnc3scc(C)c23)c1` [Example 6, N-(2,5-Dimethoxyphenyl)-5-methylthieno[2,3-d]pyrimidin-4-amine hydrochloride], the GI50 [1] is reported as greater than 10000 nM, the EC50 ([2]; Homo sapiens, HCT-116, 48 h) is reported as greater than 10000 nM and the EC50 ([3]; Homo sapiens, SNU-398, 48 h) is reported as greater than 10000 nM. The EC50 [4, 14] was greater than 10000 nM, the EC50 [4, 15] was greater than 10000 nM and the GI50 [5] was greater than 10000 nM. The EC50 [6] was greater than 10000 nM, the GI50 [7] was greater than 10000 nM and the GI50 [8] was greater than 10000 nM. It also gave a GI50 [9] greater than 10000 nM.

Work on `COc1cc(Nc2ncnc3ccsc23)cc(N(C)C)c1` [Example 70, N-(3-Dimethylamino-5-methoxyphenyl)thieno[3,2-d]pyrimidin-4-amine hydrochloride] yielded an EC50 [10] of 399 nM, an EC50 ([2]; 48 h, hydrochloride) of 433 nM and an EC50 ([3]; 48 h, hydrochloride) of 238 nM. For the same molecule, the EC50 [11] was 173 nM, the EC50 ([4]; T-47D cells, 48 h, hydrochloride, read-out: Caspase activation Potency EC50 T-47D (48 h)) was 241 nM and the EC50 [12] was 204 nM. The EC50 [13] was 153 nM.
